Measurements reported in patent publication US20260283946A1, “PHARMACEUTICAL DRY POWDER COMPOSITION AND METHODS FOR TREATING RESPIRATORY TRACT INFECTIONS” (priority 2022, published 2026).

System: Vero cells
Assay: Luciferase assay of total cellular ATP
Assay type: cell-based, African green monkey
Conditions: 5 μM ouabain, 0.4, 0.8 and 1.1% BREATHOX POWDER, 1 h
Method: Then to see the available ATP a luciferase assay was performed. Changes of the total concentration of ATP in Vero cells exposed to increasing concentrations of NaCl for 1 or 72 h was determined by plate microfluorimetry recordings with the FlexStation III microplate reader and the ATP Assay Kit (SIGMA-ALDRICH) following the manufacturer's instructions. The kit provides extremely sensitive results, detecting ATP release of 10-100 mammalian cells/well, based on the firefly luciferase-catalyzed oxidation of D-luciferin in the presence of ATP, which the amount of ATP is quantified by the amount of light (hv) produced. Recordings of the luminescence intensity of 5×10^4 cells in black clear bottom of 96 wells plates were acquired at rest (point 0 h), 1 h, 24 h and 72 h after NaCl challenge (depolarizing agent).
In order to test whether the reduced level of ATP was caused by the increased activity of Na+/K+ ATPase transporter, Vero cells were treated with 0.4, 0.8 and 1.1% of BREATHOX® POWDER in presence or absence of 5 μM ouabain (Na+/K+ ATPase transporter inhibitor). Changes in total ATP concentration in Vero cells exposed to increasing concentrations of BREATHOX® POWDER with or without 5 μM ouabain for 1 hour was determined by plate microfluorimetry recordings with the FlexStation III microplate reader and the ATP Assay Kit (SIGMA-Aldrich) following the manufacturer's instructions. […]

SMILES: C[C@@H]1O[C@@H](O[C@H]2C[C@@H](O)[C@]3(CO)[C@H]4[C@H](O)C[C@]5(C)[C@@H](C6=CC(=O)OC6)CC[C@]5(O)[C@@H]4CC[C@]3(O)C2)[C@H](O)[C@H](O)[C@H]1O [ouabain]
- decrease in ATP level caused by BREATHOX POWDER: significantly reversed
